From patent publication US20040053282A1, “Method of examining allergic disease” (priority 2000, published 2004)

How the values were obtained:
[1] = tested on: "1835-17" (intersectin 2 gene); experiment: Change in gene expression in human peripheral blood eosinophils due to stimulation by cytokines (TaqMan, ABI 7700); format: cell-based; settings: eosinophils of a healthy subject, cytokine 0.1, 1 and 10 ng/ml, 3 hours culture, GAPDH corrected, FIG. 4
Protocol: The change in gene expression due to cytokine stimulation in eosinophils isolated from 100 ml of peripheral blood from a healthy subject was studied. Isolation of eosinophils was carried out as described above. Eosinophils were plated onto a 24-well plate (1×10^6 cells/mL). The plate was pre-coated with 1% BSA (immobilizing blocking buffer) at room temperature for 2 hours in order to prevent activation due to adhesion of eosinophils. As cytokines, 0.1, 1, and 10 ng/ml each of interleukin 5 (IL-5), interleukin 4 (IL-4), interferon γ (IFNγ), granulocyte macrophage colony stimulating factor (GM-CSF), and eotaxin were added to each well, and this was cultured for 3 hours in DMEM supplemented with 10% FCS. All of these cytokines are those considered to be related to activation of eosinophils and onset of allergies.
RNAs were prepared in the same manner as in Example 1 for each of the treated eosinophils, and were subjected to gene expression analysis. The primers, probes, and such used were the same as described above. The result at 3 hours after starting the culture is shown in FIG. 4 (value was corrected with GAPDH for the number of copies per 1 ng of RNA).

mouse intersectin 2 gene = experiment: Intersectin 2 gene expression in ear tissue of DNFB-coated mouse allergic reaction model (TaqMan, ABI 7700); format: in vivo; settings: mouse ear tissue mRNA, day 6, corrected with 18S gene, value of CONT. taken as 1; four mice each; prednisolone oral day 0 to day 6
Protocol: Using a 2,4-dinitrofluorobenzene (DNFB) coated mouse as a model for an allergic reaction, changes in the expression level of the intersectin 2 gene in the mouse were observed. DNFB is a substance that is used as a hapten to cause allergic dermatitis reaction in a laboratory animal such as a mouse.
Day 0: The abdominal region was shaved by an electric clipper and 25 μL of the sensitizing solution was applied to the abdominal region.
Day 1: In a similar manner to the previous day, 25 μL of the sensitizing solution was applied to the abdominal region.
Day 5: 5 μL/ear of challenge solution was applied to both ears. […]
The expression level of the intersectin 2 gene was quantified by the TaqMan method (as mentioned above) using ABI 7700 and using mRNA sample extracted from the mouse ear tissue. […]
PCR was carried out using 25 μL of 2× Master Mix without UNG, 1.25 μL of 40×MultiScribe and RNase Inhibitor Mix, 0.25 μL of 10 μM primer, and 0.625 μL of 4 μM TaqMan Probe derived from One-step RT-PCR Master Mix Reagents (PE Biosystems), and RNA (2 ng)+DEPC resulting in total volume of 50 μL. […] To correct the differences of cDNA concentration among the samples, a similar quantitative analysis was performed on the 18S gene, and the value for the gene of interest was divided by the value for 18S, and indicated as taking the value of CONT. as 1. […]

Molecule	expression of "1835-17" (intersectin 2 gene) [1]	relative expression level of intersectin 2 gene (Average) (mouse intersectin 2 gene)
IL-5: cytokine interleukin 5	increases	
O=[N+]([O-])c1ccc(F)c([N+](=O)[O-])c1 [DNFB, 2,4-dinitrofluorobenzene]		2.04
C[C@]12C=CC(=O)C=C1CC[C@@H]1[C@@H]2[C@@H](O)C[C@@]2(C)[C@H]1CC[C@]2(O)C(=O)CO [S, prednisolone]		1.04
IFNγ: cytokine interferon γ (protein, UniProt P01579 24-161, looked up) Interferon gamma: QDPYVKEAENLKKYFNAGHSDVADNGTLFLGILKNWKEESDRKIMQSQIVSFYFKLFKNFKDDQSIQKSVETIKEDMNVKFFNSNKKKRDDFEKLTNYSVTDLNVQRKAIHELIQVMAELSPAAKTGKRKRSQMLFRG	induced	
IL-4: cytokine interleukin 4 (protein, UniProt P05112 25-153, looked up) Interleukin-4: HKCDITLQEIIKTLNSLTEQKTLCTELTVTDIFAASKNTTEKETFCRAATVLRQFYSHHEKDTRCLGATAQQFHRHKQLIRFLKRLDRNLWGLAGLNSCPVKEANQSTLENFLERLKTIMREKYSKCSS	induced	
